The source of these data is patent US11021469B2, “Indoline sulfonamide inhibitors of DapE and NDM-1 and use of the same” (priority 2014, dated 2021).

The structures appear in SMILES notation.

NDM-1, sequence (C7C422 36-270 limits assumed): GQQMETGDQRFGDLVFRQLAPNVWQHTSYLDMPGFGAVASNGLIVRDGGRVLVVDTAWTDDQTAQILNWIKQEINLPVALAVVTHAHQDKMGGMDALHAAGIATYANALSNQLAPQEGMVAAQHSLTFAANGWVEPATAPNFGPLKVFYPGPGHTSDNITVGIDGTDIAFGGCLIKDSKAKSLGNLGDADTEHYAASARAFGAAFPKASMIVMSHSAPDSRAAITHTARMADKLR

The target in the experiment is NDM-1 (Klebsiella pneumoniae, UniProt C7C422). The experiment can be described thus: Inhibition of NDM-1 assay (CHROMACEF hydrolysis). It counts as biochemical. The following applies: pH 7, read-out: % NMD-1 Inhibition (5 μM). As for the experimental part:
The ability of the compounds described herein to inhibit NDM-1 was determined in the following way.
A Substrate Working Solution was prepared from CRHROMACEF (6 μM) and Tween-20 (0.02% v/v) in water. An Enzyme Working Solution was prepared with NDM-1 (0.5 μg/mL), Hepes (0.1 M), pH 7 and Tween-20 (0.02% v/v). An Inhibitor Working Solution was prepared from 50 mM of the inhibitor in DMSO. The final assay conditions were 1 mL, Hepes (50 mM), pH 7, Tween-20 (0.02% v/v), CHROMACEF (3 uM), Δ35 NDM-1 (0.25 μg/mL). Extra zinc was omitted from these assays because extra ZnSO4 interferes with the metal binding groups in inhibitors.
An aliquot of the Inhibitor Working Solution was added to a polystyrene disposable cuvette to achieve a final concentration of 0-50 μM (in 1 mL final). Supplemental DMSO was added to reach a final volume of 4 μL. NDM-1 Working Solution (0.05 mL) was added to the cuvette and the inhibitor and enzyme were allowed to incubate for about 20 minutes. The reaction was initiated by added 0.5 mL Substrate Working Solution. The solution was mixed quickly, but gently to avoid bubble formation. CHROMACEF […] was recorded to start the reaction. The reaction was mixed fast, but gently. The change in absorbance ΔAbs442nm/min was measured for each inhibitor from the linear slope from each inhibitor concentration.
As usually defined, the inhibition is the drop in the measured response relative to a control, in per cent. Regarding `CCNS(=O)(=O)c1cc(Br)cc2c1N(C(C)=O)CC2`, the inhibition at 5 µM came out at 16.8%. To `CC(=O)N1CCc2cc(Br)cc(S(=O)(=O)NCCC(C)C)c21` belongs 62.7%; to `CC(=O)N1CCc2cc(Br)cc(S(=O)(=O)NCc3ccccc3)c21`, 27.3%.
